This note sets out measurements from patent publication US10450301B2, “Apoptosis signal-regulating kinase 1 inhibitors and methods of use thereof” (ENANTA PHARMACEUTICALS, INC., priority 2017, dated 2019).

Bounds are passed on as bounds.

Usually IC50 stands for the concentration needed to halve the response being measured. Read a low IC50 as greater potency in that assay.

ASK1, sequence (Q99683 whole entry): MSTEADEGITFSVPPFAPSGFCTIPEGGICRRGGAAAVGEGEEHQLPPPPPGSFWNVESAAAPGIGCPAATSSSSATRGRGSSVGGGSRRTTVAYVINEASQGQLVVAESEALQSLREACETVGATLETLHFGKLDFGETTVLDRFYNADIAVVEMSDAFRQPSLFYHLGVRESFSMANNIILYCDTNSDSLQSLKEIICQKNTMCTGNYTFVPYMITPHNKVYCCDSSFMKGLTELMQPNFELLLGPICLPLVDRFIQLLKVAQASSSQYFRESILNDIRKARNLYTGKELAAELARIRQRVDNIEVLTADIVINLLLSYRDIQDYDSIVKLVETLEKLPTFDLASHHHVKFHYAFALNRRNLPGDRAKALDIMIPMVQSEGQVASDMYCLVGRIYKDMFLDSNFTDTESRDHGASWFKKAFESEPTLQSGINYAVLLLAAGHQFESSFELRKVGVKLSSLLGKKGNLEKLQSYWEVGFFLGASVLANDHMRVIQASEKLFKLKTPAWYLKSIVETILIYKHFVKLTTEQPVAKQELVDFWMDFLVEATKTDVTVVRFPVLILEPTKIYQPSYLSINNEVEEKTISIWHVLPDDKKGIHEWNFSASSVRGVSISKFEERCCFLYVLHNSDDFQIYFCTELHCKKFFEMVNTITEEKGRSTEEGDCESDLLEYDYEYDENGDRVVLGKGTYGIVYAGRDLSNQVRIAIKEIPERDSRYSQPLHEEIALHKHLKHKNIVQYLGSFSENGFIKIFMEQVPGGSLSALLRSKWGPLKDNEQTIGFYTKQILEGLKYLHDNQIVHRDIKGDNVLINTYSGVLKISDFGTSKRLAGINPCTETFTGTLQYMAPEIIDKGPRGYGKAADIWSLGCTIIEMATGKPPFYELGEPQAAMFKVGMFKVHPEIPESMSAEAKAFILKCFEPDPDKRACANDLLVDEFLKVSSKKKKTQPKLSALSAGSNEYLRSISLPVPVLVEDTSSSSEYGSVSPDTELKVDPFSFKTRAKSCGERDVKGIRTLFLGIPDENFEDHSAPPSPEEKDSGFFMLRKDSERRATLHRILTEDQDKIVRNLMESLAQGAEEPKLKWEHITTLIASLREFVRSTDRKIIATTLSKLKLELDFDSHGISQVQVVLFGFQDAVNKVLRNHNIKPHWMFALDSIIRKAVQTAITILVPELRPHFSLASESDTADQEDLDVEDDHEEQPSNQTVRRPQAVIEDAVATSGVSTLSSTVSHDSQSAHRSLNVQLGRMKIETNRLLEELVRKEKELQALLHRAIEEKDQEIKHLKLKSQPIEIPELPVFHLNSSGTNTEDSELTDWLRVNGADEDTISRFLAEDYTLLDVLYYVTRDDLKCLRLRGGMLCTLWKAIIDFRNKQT

The test deals with ASK1 (Homo sapiens (Human), UniProt Q99683). The test can be described thus: HTRF KinEASE Assay (TR-FRET, STK3 peptide substrate), inhibition of ASK1. Type of test: biochemical. The conditions noted are these: 5 nM ASK1 kinase, 1 μM STK3 peptide substrate, 100 μM ATP, 3 hours; compound 0 to 10 μM. Put shortly:
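TR-FRET HTRF KinEASE-STK format with an STK3 biotinylated peptide substrate. Signal tracks phosphorylation; IC50 from curve fitting.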
Background: In TR-FRET formats the signal depends on donor and acceptor labels being close together.
As to `C[C@H](CO)n1nnnc1-c1cccc(NC(=O)c2cc3c(cn2)CCN(C(=O)N2CCCC2)C3)n1` [Example 144, (R)—N-(6-(1-(1-hydroxypropan-2-yl)-1H-tetrazol-5-yl)pyridin-2-yl)-6-(pyrrolidine-1-carbonyl)-5,6,7,8-tetrahydro-2,6-naphthyridine-3-carboxamide], the IC50 lay in the range of 1 to 10 nM.

For `CC1c2cc(C(=O)Nc3cccc(-c4nnnn4C(C)C)n3)c(F)cc2CCN1C(=O)OCc1ccccc1` (centres unmarked) [Example 74, benzyl 6-fluoro-7-((6-(1-isopropyl-1H-tetrazol-5-yl)pyridin-2-yl)carbamoyl)-1-methyl-3,4-dihydroisoquinoline-2(1H)-carboxylate], the IC50 lay within 100 to 1000 nM.

`CC(C)OC(=O)N1CCc2cnc(C(=O)Nc3cccc(-c4nnnn4[C@H](C)CO)n3)cc2C1` [Example 162, isopropyl (R)-7-((6-(1-(1-hydroxypropan-2-yl)-1H-tetrazol-5-yl)pyridin-2-yl)carbamoyl)-3,4-dihydro-2,6-naphthyridine-2(1H)-carboxylate] showed an IC50 of 1 to 10 nM.

In the case of `CC(C)n1nnnc1-c1cccc(NC(=O)c2cc3c(cc2F)CCN(C(=O)N2C[C@@H](C)O[C@@H](C)C2)C3)n1` [Example 106], the IC50 was in the range of 10 to 100 nM.

For `CC(C)n1nnnc1-c1cccc(NC(=O)c2cc3c(cc2F)CCN(C(=O)N2CCSCC2)C3)n1` [Example 105], the IC50 is 10 to 100 nM.

With `CC(C)S(=O)(=O)N1CCc2cnc(C(=O)Nc3cccc(-c4nnnn4[C@H](C)CO)n3)cc2C1` [Example 149], the IC50 lay within 1 to 10 nM.

As for `C[C@H](CO)n1nnnc1-c1cccc(NC(=O)c2cc3c(cn2)CCN(S(=O)(=O)N2CCCC2)C3)n1` [Example 154], the IC50 is 1 to 10 nM.

`CC(C)n1nnnc1-c1cccc(NC(=O)c2ccc3c(c2)CN(S(=O)(=O)CCC(F)(F)F)C3)n1` [Example 14]: the IC50 is > 1000 nM.

Regarding `COCCC(=O)N1CCc2ccc(C(=O)Nc3cccc(-c4nncn4C(C)C)n3)cc2C1` [Example 60], the IC50 fell in the range of 10 to 100 nM.

Take `COCCNC(=O)N1CCc2cnc(C(=O)Nc3cccc(-c4nnnn4[C@H](C)CO)n3)cc2C1` [Example 130]: the IC50 lay within 1 to 10 nM.

Consider `CC(C)n1nnnc1-c1cccc(NC(=O)c2cc3c(cn2)CCN(S(=O)(=O)CC(F)(F)F)C3)n1` [Example 140], for which the IC50 lay in the range of 10 to 100 nM.

With `CC(C)n1nnnc1-c1cccc(NC(=O)c2cc3c(cc2F)CCN(C(=O)N(C)C2CCCC2)C3)n1` [Example 78], the IC50 lay in the range of 10 to 100 nM.

For the compound `CCC(=O)N1CCc2cnc(C(=O)Nc3cccc(-c4nnnn4[C@H](C)CO)n3)cc2C1` [Example 125], the IC50 is 1 to 10 nM.

Take `CC(C)n1nnnc1-c1cccc(NC(=O)c2cc3c(cn2)CN(C(=O)OCc2ccccc2)C3)n1` [Example 180]: the IC50 was > 1000 nM.

In turn, `CCNC(=O)N1CCc2cc(F)c(C(=O)Nc3cccc(-c4nnnn4C(C)C)n3)cc2C1` [Example 29, N2-ethyl-6-fluoro-N7-(6-(1-isopropyl-1H-tetrazol-5-yl)pyridin-2-yl)-3,4-dihydroisoquinoline-2,7(1H)-dicarboxamide] gave an IC50 of 1 to 10 nM.

In turn, `CC(C)CS(=O)(=O)N1CCc2cc(F)c(C(=O)Nc3cccc(-c4nnnn4C(C)C)n3)cc2C1` [Example 86] registered an IC50 of 10 to 100 nM.

`CC(C)N1Cc2cnc(C(=O)Nc3cccc(-c4nncn4C(C)C)n3)cc2C1=O` [Example 19, 2-isopropyl-N-(6-(4-isopropyl-4H-1,2,4-triazol-3-yl)pyridin-2-yl)-1-oxo-2,3-dihydro-1H-pyrrolo[3,4-c]pyridine-6-carboxamide] registered an IC50 of 10 to 100 nM.

As to `CC(C)c1nnnn1-c1cccc(NC(=O)c2cc3c(cc2F)CCN(S(=O)(=O)CCC(F)(F)F)C3)n1` [Example 100], the IC50 is > 1000 nM.

On to `CCN(C)C(=O)N1Cc2ccc(C(=O)Nc3cccc(-c4nnnn4C(C)C)n3)cc2C1` [Example 13], for which the IC50 is > 1000 nM.

As for `CC1NCCc2cc(F)c(C(=O)Nc3cccc(-c4nnnn4C(C)C)n3)cc21` (centres unmarked) [Example 68, 6-fluoro-N-(6-(1-isopropyl-1H-tetrazol-5-yl)pyridin-2-yl)-1-methyl-1,2,3,4-tetrahydroiso-quinoline-7-carboxamide], the IC50 was in the range of 100 to 1000 nM.

The compound `C[C@H](CO)n1nnnc1-c1cccc(NC(=O)c2cc3c(cn2)CCN(C)C3)n1` [Example 181] yielded an IC50 of 1 to 10 nM.

With `CC(C)n1nnnc1-c1cccc(NC(=O)c2cc3c(cc2F)CCN(C(=O)C2CCCC2)C3)n1` [Example 97], the IC50 was 10 to 100 nM.

For `CC(C)CN(C)C(=O)N1CCc2cc(F)c(C(=O)Nc3cccc(-c4nnnn4C(C)C)n3)cc2C1` [Example 79], the IC50 is 10 to 100 nM.

Turning to `C[C@H](CO)n1nnnc1-c1cccc(NC(=O)c2cc3c(cn2)CCN(C(=O)C(C)(C)C)C3)n1` [Example 152], the IC50 was 1 to 10 nM.

In turn, `C[C@H](CO)n1nnnc1-c1cccc(NC(=O)c2cc3c(cn2)CCN(C(=O)NC2CCCC2)C3)n1` [Example 169] yielded an IC50 of 1 to 10 nM.

On to `CCN(CC)C(=O)N1CCc2cc(F)c(C(=O)Nc3cccc(-c4nnnn4C(C)C)n3)cc2C1` [Example 94], for which the IC50 lay in the range of 1 to 10 nM.

In the case of `CC(C)n1nnnc1-c1cccc(NC(=O)c2cc3c(cc2F)CCN(C(=O)N(C)C)C3)n1` [Example 96], the IC50 fell in the range of 10 to 100 nM.

As to `COCCS(=O)(=O)N1CCc2cc(F)c(C(=O)Nc3cccc(-c4nncn4C(C)C)n3)cc2C1` [Example 23], the IC50 is 1 to 10 nM.

Turning to `C[C@H](CO)n1nnnc1-c1cccc(NC(=O)c2cc3c(cn2)CCN(S(=O)(=O)c2ccccc2)C3)n1` [Example 120], the 50% inhibitory concentration (IC50) is 1 to 10 nM.

In the case of `CC(C)n1nnnc1-c1cccc(NC(=O)c2ccc3c(c2)CNC3)n1` [Example 8], the IC50 was > 1000 nM.

As for `CC(=O)OC[C@@H](C)n1nnnc1-c1cccc(NC(=O)c2cc3c(cc2F)CCN(S(=O)(=O)CCC(F)(F)F)C3)n1` [Example 84], the IC50 was > 1000 nM.

Compound `C[C@H](CO)n1nnnc1-c1cccc(NC(=O)c2cc3c(cn2)CCN(C(=O)N2[C@@H]4CCC[C@H]2CC4)C3)n1` [Example 182, 6-((1R,5 S)-8-azabicyclo[3.2.1]octane-8-carbonyl)-N-(6-(1-((R)-1-hydroxypropan-2-yl)-1H-tetrazol-5-yl)pyridin-2-yl)-5,6,7,8-tetrahydro-2,6-naphthyridine-3-carboxamide] registered an IC50 of 1 to 10 nM.

Compound `CC(C)N(C)C(=O)N1CCc2cc(F)c(C(=O)Nc3cccc(-c4nnnn4C(C)C)n3)cc2C1` [Example 80] showed an IC50 of 10 to 100 nM.

`CC(C)n1cnnc1-c1cccc(NC(=O)c2cc3c(cc2F)CCN(C(=O)N(C)C)C3)n1` [Example 48] came in with an IC50 of 1 to 10 nM.

`CC(C)n1nnnc1-c1cccc(NC(=O)c2cc3c(cn2)CCN(S(=O)(=O)N(C)C)C3)n1` [Example 111] had an IC50 of 10 to 100 nM.

Turning to `CC(C)n1cnnc1-c1cccc(NC(=O)c2ccc3c(c2)CN(S(=O)(=O)CCC(F)(F)F)C3)n1` [Example 4, N-(6-(4-isopropyl-4H-1,2,4-triazol-3-yl)pyridin-2-yl)-2-((3,3,3-trifluoropropyl)sulfonyl)isoindoline-5-carboxamide], the IC50 fell in the range of 100 to 1000 nM.

Turning to `C[C@H](CO)n1nnnc1-c1cccc(NC(=O)c2cc3c(cn2)CCN(S(=O)(=O)N(C)C)C3)n1` [Example 166], the IC50 fell in the range of 1 to 10 nM.

In the case of `CC(C)N1Cc2cc(F)c(C(=O)Nc3cccc(-c4nnnn4C(C)C)n3)cc2C1=O` [Example 176], the IC50 is > 1000 nM.

In turn, `CC(C)n1cnnc1-c1cccc(NC(=O)c2ccc3c(c2)CN(C(=O)N2CCCC2)C3)n1` [Example 17] registered an IC50 of 10 to 100 nM.

The compound `CC(C)n1nnnc1-c1cccc(NC(=O)c2cc3c(cc2F)CCN(S(=O)(=O)CC(F)F)C3)n1` [Example 103] came in with an IC50 of 10 to 100 nM.

The compound `C[C@H](CO)n1nnnc1-c1cccc(NC(=O)c2cc3c(cn2)CCN(S(=O)(=O)C2CC2)C3)n1` [Example 148] registered an IC50 of 1 to 10 nM.
